Reference: patent US9550772B2, “Azaindole derivatives as multi kinase inhibitors” (ORIBASE PHARMA, priority 2012, dated 2017)
Where two headings read alike, the source gives them in different places.

What was measured:
HRMEC cells = test: In vitro cell proliferation assay (MTT); format: cell-based; details: 72 hr, read-out: EC50, anti-proliferative activity
Outline: (§1)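 Duplicate 72 hr treatments spanning 10 nM–3 μM compound preceded MTT measurement of growth. Sigmoidal fitting yielded EC50, with normalization against DMSO controls set at 0% and 1% SDS controls set at 100%.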

EGFR (ErbB1) = target: T1, EGFR (ErbB1) (Homo sapiens, UniProt P00533); test: In vitro kinase assay (Z'-LYTE, Invitrogen); format: biochemical; details: compound at 100 nM, ATP Km apparent, read-out: % of inhibition of the kinase compared to the control
T1 construct: purchased Invitrogen
T1 sequence (P00533 25-1210): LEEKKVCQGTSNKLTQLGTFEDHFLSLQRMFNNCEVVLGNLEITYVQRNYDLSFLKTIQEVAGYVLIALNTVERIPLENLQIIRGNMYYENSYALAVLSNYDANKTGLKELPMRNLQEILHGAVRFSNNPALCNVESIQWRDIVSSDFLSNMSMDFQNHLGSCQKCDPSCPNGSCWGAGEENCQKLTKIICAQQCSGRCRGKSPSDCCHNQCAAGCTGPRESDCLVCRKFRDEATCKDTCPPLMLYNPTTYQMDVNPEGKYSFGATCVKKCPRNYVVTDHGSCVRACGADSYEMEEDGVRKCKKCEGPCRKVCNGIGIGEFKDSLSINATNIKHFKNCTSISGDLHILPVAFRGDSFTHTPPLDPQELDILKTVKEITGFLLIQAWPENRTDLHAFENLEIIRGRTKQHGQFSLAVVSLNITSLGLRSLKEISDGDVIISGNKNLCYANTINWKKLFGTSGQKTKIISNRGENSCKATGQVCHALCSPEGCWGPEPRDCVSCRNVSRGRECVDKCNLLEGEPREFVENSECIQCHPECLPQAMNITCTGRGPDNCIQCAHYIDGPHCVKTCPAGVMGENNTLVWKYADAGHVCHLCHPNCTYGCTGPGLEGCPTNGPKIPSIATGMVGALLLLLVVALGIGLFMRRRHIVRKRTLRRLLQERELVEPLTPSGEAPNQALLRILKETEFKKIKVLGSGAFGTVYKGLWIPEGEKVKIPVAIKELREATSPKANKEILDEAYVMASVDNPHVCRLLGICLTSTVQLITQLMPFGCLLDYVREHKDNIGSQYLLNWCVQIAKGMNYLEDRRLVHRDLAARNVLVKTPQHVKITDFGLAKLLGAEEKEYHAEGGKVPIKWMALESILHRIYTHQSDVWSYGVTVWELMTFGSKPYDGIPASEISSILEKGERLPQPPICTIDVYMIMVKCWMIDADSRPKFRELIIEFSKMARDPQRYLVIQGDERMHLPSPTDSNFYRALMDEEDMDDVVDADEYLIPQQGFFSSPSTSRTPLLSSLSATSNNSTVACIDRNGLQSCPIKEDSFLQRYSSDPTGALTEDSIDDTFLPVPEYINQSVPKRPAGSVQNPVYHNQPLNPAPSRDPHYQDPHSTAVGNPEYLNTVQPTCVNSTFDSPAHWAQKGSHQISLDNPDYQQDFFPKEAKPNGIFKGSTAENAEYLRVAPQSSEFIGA
Outline: (§2)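 Compounds were tested at 100 nM in 1% DMSO final against each kinase with its peptide substrate, ATP at apparent Km, in 50 mM HEPES pH 7.5 with 10 mM MgCl2, 1 mM EGTA, 0.01% BRIJ-35. Phosphorylation was quantified by Z′-LYTE coupled protease/FRET emission ratio.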

FGFR2 = target: T2, FGFR2 (Homo sapiens, UniProt P21802); test: In vitro kinase assay (Z'-LYTE, Invitrogen); format: biochemical; details: compound at 100 nM, ATP Km apparent, read-out: % of inhibition of the kinase compared to the control
T2 construct: purchased Invitrogen
T2 sequence (P21802 22-821): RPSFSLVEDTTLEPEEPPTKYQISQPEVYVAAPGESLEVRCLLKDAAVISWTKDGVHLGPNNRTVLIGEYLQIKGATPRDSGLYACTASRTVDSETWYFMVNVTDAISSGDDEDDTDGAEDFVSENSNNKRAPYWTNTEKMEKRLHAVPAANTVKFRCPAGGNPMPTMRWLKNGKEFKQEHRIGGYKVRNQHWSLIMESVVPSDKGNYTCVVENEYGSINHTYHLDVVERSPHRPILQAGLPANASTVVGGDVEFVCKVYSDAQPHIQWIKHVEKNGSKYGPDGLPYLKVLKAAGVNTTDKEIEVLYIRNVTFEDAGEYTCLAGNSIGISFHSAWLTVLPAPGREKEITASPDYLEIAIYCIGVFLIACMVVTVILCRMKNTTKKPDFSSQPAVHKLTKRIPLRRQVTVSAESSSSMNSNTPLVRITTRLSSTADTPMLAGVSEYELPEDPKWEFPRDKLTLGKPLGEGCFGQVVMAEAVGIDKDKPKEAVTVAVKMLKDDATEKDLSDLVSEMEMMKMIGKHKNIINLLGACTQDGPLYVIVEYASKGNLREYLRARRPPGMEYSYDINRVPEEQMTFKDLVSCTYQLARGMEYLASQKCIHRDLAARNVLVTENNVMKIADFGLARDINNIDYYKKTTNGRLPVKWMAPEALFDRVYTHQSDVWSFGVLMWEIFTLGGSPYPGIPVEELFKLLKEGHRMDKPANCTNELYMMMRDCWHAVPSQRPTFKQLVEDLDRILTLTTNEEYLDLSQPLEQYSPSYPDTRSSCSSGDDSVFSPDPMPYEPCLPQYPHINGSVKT
Outline: as §2

KDR (VEGFR2) = target: T3, KDR (VEGFR2) (Homo sapiens, UniProt P35968); test: In vitro kinase assay (Z'-LYTE, Invitrogen); format: biochemical; details: compound at 100 nM, ATP Km apparent, read-out: % of inhibition of the kinase compared to the control
T3 construct: purchased Invitrogen
Outline: as §2

BRAF = target: T4, BRAF (Homo sapiens, UniProt P15056); test: In vitro kinase assay (Z'-LYTE, Invitrogen); format: biochemical; details: compound at 100 nM, ATP Km apparent, read-out: % of inhibition of the kinase compared to the control
T4 construct: purchased Invitrogen
T4 sequence (P15056 whole entry): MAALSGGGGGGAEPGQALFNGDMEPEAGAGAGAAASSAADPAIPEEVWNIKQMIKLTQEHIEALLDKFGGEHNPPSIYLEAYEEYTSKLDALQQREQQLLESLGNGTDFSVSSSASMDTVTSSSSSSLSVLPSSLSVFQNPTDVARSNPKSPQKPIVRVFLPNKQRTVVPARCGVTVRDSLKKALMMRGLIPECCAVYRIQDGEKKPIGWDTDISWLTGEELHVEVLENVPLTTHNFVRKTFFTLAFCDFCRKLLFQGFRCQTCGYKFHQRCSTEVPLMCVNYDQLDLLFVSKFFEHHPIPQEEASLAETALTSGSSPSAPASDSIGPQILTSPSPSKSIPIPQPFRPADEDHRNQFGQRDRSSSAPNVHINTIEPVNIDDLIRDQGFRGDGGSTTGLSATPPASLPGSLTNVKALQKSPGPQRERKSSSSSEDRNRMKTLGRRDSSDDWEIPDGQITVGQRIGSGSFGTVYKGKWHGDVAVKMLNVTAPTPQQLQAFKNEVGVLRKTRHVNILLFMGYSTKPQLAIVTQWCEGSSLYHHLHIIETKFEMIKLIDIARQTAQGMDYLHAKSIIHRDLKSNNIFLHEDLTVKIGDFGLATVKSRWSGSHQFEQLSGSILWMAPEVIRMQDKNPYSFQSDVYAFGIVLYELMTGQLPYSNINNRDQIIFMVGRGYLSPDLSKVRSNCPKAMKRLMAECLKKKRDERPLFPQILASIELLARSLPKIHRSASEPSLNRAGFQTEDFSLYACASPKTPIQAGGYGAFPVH
Outline: as §2

SRC = target: T5, SRC (Homo sapiens, UniProt P12931); test: In vitro kinase assay (Z'-LYTE, Invitrogen); format: biochemical; details: compound at 100 nM, ATP Km apparent, read-out: % of inhibition of the kinase compared to the control
T5 construct: purchased Invitrogen
T5 sequence (P12931 whole entry): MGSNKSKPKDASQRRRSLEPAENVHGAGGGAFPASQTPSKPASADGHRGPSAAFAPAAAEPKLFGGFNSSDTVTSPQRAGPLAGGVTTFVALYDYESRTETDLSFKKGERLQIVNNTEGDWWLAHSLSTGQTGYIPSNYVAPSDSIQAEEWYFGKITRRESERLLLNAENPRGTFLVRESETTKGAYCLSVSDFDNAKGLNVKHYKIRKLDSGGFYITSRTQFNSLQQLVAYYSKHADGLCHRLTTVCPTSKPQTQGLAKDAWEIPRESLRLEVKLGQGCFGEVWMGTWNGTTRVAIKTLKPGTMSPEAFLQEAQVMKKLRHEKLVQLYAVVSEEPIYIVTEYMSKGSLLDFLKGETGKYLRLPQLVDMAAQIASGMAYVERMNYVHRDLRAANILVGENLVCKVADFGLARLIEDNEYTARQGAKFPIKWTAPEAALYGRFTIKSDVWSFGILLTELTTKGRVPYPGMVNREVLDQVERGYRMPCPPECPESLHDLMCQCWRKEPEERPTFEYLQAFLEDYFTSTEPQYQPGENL
Outline: as §2

PDGFRA (PDGFR alpha) = target: T6, PDGFRA (PDGFR alpha) (Homo sapiens, UniProt P16234); test: In vitro kinase assay (Z'-LYTE, Invitrogen); format: biochemical; details: compound at 100 nM, ATP Km apparent, read-out: % of inhibition of the kinase compared to the control
T6 construct: purchased Invitrogen
T6 sequence (P16234 24-1089): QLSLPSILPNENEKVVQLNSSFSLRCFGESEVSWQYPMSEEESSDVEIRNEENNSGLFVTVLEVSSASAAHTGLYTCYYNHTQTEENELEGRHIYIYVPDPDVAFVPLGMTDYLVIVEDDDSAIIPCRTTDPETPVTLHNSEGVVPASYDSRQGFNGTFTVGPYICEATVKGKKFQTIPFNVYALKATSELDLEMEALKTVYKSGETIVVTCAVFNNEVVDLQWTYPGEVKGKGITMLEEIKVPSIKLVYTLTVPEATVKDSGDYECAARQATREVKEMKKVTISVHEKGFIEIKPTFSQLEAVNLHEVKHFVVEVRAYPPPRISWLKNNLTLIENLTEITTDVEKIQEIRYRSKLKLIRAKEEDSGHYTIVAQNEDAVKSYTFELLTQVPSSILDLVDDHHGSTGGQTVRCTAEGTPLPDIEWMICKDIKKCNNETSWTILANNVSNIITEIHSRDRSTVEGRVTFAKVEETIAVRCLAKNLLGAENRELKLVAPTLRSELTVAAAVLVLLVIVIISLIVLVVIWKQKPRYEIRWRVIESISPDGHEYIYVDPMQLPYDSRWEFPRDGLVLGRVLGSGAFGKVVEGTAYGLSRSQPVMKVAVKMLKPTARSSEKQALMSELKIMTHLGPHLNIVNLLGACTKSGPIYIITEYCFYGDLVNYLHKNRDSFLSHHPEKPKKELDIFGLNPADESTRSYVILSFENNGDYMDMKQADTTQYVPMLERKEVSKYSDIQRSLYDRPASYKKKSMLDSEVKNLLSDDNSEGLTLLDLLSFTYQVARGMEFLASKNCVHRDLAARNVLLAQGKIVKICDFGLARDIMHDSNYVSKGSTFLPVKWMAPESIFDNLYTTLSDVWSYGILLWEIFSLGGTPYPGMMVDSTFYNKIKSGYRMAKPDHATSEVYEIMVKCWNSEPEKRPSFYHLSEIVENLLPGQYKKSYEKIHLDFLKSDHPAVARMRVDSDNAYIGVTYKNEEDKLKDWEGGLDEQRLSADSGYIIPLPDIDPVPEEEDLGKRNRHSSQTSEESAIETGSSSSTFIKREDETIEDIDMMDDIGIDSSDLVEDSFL
Outline: as §2

H1975 cell line = test: In vitro cell proliferation assay (MTT); format: cell-based; details: Homo sapiens, NCI-H1975, H1975, 72 hr, EC50 ≧ 1 μM, read-out: EC50, anti-proliferative activity
Outline: as §1

HuCCT1 cell line = test: In vitro cell proliferation assay (MTT); format: cell-based; details: Homo sapiens, HuCCT-1, HuCCT1, 72 hr, read-out: EC50, anti-proliferative activity
Outline: as §1

HuH6 Clone 5 cell line = test: In vitro cell proliferation assay (MTT); format: cell-based; details: HUH-6-clone5, HuH6 Clone 5, 72 hr, 100 nM < EC50 < 1 μM, read-out: EC50, anti-proliferative activity
Outline: as §1

A549 cell line = test: In vitro cell proliferation assay (MTT); format: cell-based; details: Homo sapiens, A549, 72 h, read-out: EC50, anti-proliferative activity
Outline: as §1

HT29 cell line = test: In vitro cell proliferation assay (MTT); format: cell-based; details: Homo sapiens, HT-29, HT29, 72 hr, EC50 ≧ 1 μM, read-out: EC50, anti-proliferative activity
Outline: as §1

HuH7 cell line = test: In vitro cell proliferation assay (MTT); format: cell-based; details: Homo sapiens, Huh-7, HuH7, 72 hr, read-out: EC50, anti-proliferative activity
Outline: as §1

HUVEC cells = test: In vitro cell proliferation assay (MTT); format: cell-based; details: Homo sapiens, 72 hr, read-out: EC50, anti-proliferative activity
Outline: as §1

HepG2 cell line = test: In vitro cell proliferation assay (MTT); format: cell-based; details: Homo sapiens, HepG2, 72 hr, 100 nM < EC50 < 1 μM, read-out: EC50, anti-proliferative activity
Outline: as §1

EGFR (ErbB1) T790M L858R = target: T7, EGFR (ErbB1) T790M L858R (Homo sapiens, UniProt P00533, L858R/T790M); test: In vitro kinase assay (Z'-LYTE, Invitrogen); format: biochemical; details: compound at 100 nM, ATP Km apparent, read-out: % of inhibition of the kinase compared to the control
T7 construct: purchased Invitrogen
Outline: as §2

HeLa cell line = test: In vitro cell proliferation assay (MTT); format: cell-based; details: Homo sapiens, 72 hr, 100 nM < EC50 < 1 μM, read-out: EC50, anti-proliferative activity
Outline: as §1

MDA-MB-231 cell line = test: In vitro cell proliferation assay (MTT); format: cell-based; details: Homo sapiens, MDA-MB-231, 72 hr, read-out: EC50, anti-proliferative activity
Outline: as §1

SMILES	inhibition at 0.1 µM (EGFR (ErbB1)) [%]	inhibition at 0.1 µM (FGFR2) [%]	inhibition at 0.1 µM (KDR (VEGFR2)) [%]	inhibition at 0.1 µM (BRAF) [%]	inhibition at 0.1 µM (SRC) [%]	inhibition at 0.1 µM (PDGFRA (PDGFR alpha)) [%]	EC50 (HuH6 Clone 5 cell line) [nM]	EC50 (HuH7 cell line; 100 nM < EC50 < 1 μM) [nM]	EC50 (HepG2 cell line) [nM]	EC50 (HuCCT1 cell line; EC50 ≧ 1 μM) [nM]	EC50 (A549 cell line; EC50 ≦ 100 nM) [nM]	EC50 (HeLa cell line) [nM]	EC50 (HUVEC cells; EC50 ≦ 100 nM) [nM]	other results
COC(=O)c1cc2cc(C=Cc3cc(NC(=O)c4ccc(CN5CCN(C)CC5)cc4)ccc3C)cnc2[nH]1 [OR0776, 5-(-2-{2-Methyl-5-[4-(4-methyl-piperazin-1-ylmethyl)-benzoylamino]-phenyl}-vinyl)-1H-pyrrolo[2,3-b]pyridine-2-carboxylic acid methyl ester]	< 50	< 50	≥ 50	< 50	< 50	≥ 50	–	–	–	–	–	–	–	EC50 (HRMEC cells; EC50 ≧ 1 μM): ≥ 1000 nM
COC(=O)c1cc2cc(C=Cc3cc(NC(=O)c4ccc(CN5CCN(C)CC5)c(C(F)(F)F)c4)ccc3C)cnc2[nH]1 [OR0777, 5-(-2-{2-Methyl-5-[4-(4-methyl-piperazin-1-ylmethyl)-3-trifluoromethyl-benzoylamino]-phenyl}-vinyl)-1H-pyrrolo[2,3-b]pyridine-2-carboxylic acid methyl ester]	≥ 50	≥ 50	≥ 50	< 50	≥ 50	≥ 50	100 to 1000	100 to 1000	100 to 1000	–	–	–	–	EC50 (H1975 cell line): ≥ 1000 nM; EC50 (HuCCT1 cell line; 100 nM < EC50 < 1 μM): 100 to 1000 nM; EC50 (A549 cell line; EC50 ≧ 1 μM): ≥ 1000 nM; EC50 (HT29 cell line): ≥ 1000 nM; EC50 (HUVEC cells; 100 nM < EC50 < 1 μM): 100 to 1000 nM; inhibition at 0.1 µM (EGFR (ErbB1) T790M L858R): < 50%
CC(=O)c1cc2cc(CCc3cc(NC(=O)c4ccc(CN5CCN(C)CC5)c(C(F)(F)F)c4)ccc3C)cnc2[nH]1 [OR0797, N-{3-[2-(2-Acetyl-1H-pyrrolo[2,3-b]pyridin-5-yl)-ethyl]-4-methyl-phenyl}-4-(4-methyl-piperazin-1-ylmethyl)-3-trifluoromethyl-benzamide]	≥ 50	≥ 50	≥ 50	≥ 50	≥ 50	≥ 50	100 to 1000	–	100 to 1000	≥ 1000	≤ 100	100 to 1000	≤ 100	EC50 (MDA-MB-231 cell line; EC50 ≦ 100 nM): ≤ 100 nM; EC50 (HuH7 cell line; EC50 ≦ 100 nM): ≤ 100 nM; EC50 (HRMEC cells; EC50 ≦ 100 nM): ≤ 100 nM
CC(=O)c1cc2cc(CCc3cc(NC(=O)c4ccc(CN5CCC(N(C)C)C5)c(C(F)(F)F)c4)ccc3C)cnc2[nH]1 (stereo not shown) [OR0798, N-{3-[2-(2-Acetyl-1H-pyrrolo[2,3-b]pyridin-5-yl)-ethyl]-4-methyl-phenyl}-4-(3-dimethylamino-pyrrolidin-1-ylmethyl)-3-trifluoromethyl-benzamide]	≥ 50	≥ 50	≥ 50	≥ 50	≥ 50	≥ 50	100 to 1000	100 to 1000	100 to 1000	≥ 1000	≤ 100	100 to 1000	≤ 100	EC50 (MDA-MB-231 cell line; 100 nM < EC50 < 1 μM): 100 to 1000 nM; EC50 (HRMEC cells; 100 nM < EC50 < 1 μM): 100 to 1000 nM
